# Measurements taken from patent US7872005B2, “2-substituted heteroaryl compounds” (Synta Pharmaceuticals Corporation, priority 2004, dated 2011).
# Assays:
# [1] = system: adjuvant arthritis (AA) in female Lewis rats; test: Treatment of adjuvant arthritis in rats; format: in vivo, rat; details: oral, once a day for 12 days; dose-dependent
# Protocol: A heterocyclic compound can also be evaluated by animal studies. For example, one of such studies involves the ability of a test compound to treat adjuvant arthritis (i.e., a IL-12 overproduction related disorder) in rats.
# Treatment of adjuvant arthritis in rats: Adjuvant arthritis (AA) was induced in female Lewis rats by the intracutaneous injection (base of the tail) of 0.1 mL of a 10 mg/mL bacterial suspension made from ground, heat-killed Mycobacterium tuberculosis H37Ra suspended in incomplete Freund's adjuvant. Rats were given a test compound orally once a day for 12 days, starting the day following the induction. The development of polyarthritis was monitored daily by macroscopic inspection and assignment of an arthritis index to each animal, during the critical period (days 10 to 25 post-immunization).
# The intensity of polyarthritis was scored according to the following scheme: (a) Grade each paw from 0 to 3 based on erythema, swelling, and deformity of the joints: 0 for no erythema or swelling; 0.5 if swelling is detectable in at least one joint; 1 for mild swelling and erythema; 2 for swelling and erythema of both tarsus and carpus; and 3 for ankylosis and bony deformity. Maximum score for all 4 paws was thus 12. […]
# [2] = system: DNBS-induced distal colitis in Wistar derived rats; test: Dinitrobenzene sulfonic acid-induced inflammatory bowel syndrome model rats (distal colitis); format: in vivo, rat; details: oral, 24 and 2 hours before DNBS, then daily for 5 days; relative to net increase of vehicle+DNBS group
# Protocol: Treatment of Crohn's disease in dinitrobenzene sulfonic acid-induced inflammatory bowel syndrome model rats: Wistar derived male or female rats weighing 200±20 g and fasted for 24 hours were used. Distal colitis was induced by intra-colonic instillation of 2,4-dinitrobenzene sulfonic acid (DNBS, 25 mg in 0.5 mL ethanol 30%) after which air (2 mL) was gently injected through the cannula to ensure that the solution remained in the colon. A test compound and/or vehicle was administered orally 24 and 2 hours before DNBS instillation and then daily for 5 days. One control group was similarly treated with vehicle alone while the other is treated with vehicle plus DNBS. The animals were sacrificed 24 hours after the final dose of test compound administration and each colon was removed and weighed. Colon-to-body weight ratio was then calculated for each animal according to the formula: Colon (g)/BW×100. The “Net” increase in ratio of Vehicle-control+DNBS group relative to Vehicle-control group was used as a base for comparison with test substance treated groups and expressed as “% Deduction.” Pyrimidine compounds of this invention (e.g., Compound 12) reproducibly had about 30% deduction. A 30% or more reduction in colon-to-body weight ratio, relative to the vehicle treated control group, was considered significant.
# [3] = system: IL-12 production in human PBMC or THP-1 cells; test: In vitro inhibition of IL-12 production in stimulated human PBMC or THP-1 cells (ELISA); format: cell-based; details: representative in vitro IC50 data
# Excerpt: The biological activities of a heterocyclic compound can be evaluated by a number of cell-based assays. One of such assays can be conducted using cells from human peripheral blood mononuclear cells (PBMC) or human monocytic cell line (THP-1). The cells are stimulated with a combination of human interferon-γ (IFNγ) and lipopolysaccharide or a combination of IFNγ and Staphylococcus aureus Cowan I in the presence of a test compound. The level of inhibition of IL-12 production can be measured by determining the amount of p70 by using a sandwich ELISA assay with anti-human IL-12 antibodies. IC50 of the test compound can then be determined. Specifically, PBMC or THP-1 cells are incubated with the test compound. Cell viability was assessed using the bioreduction of MTS [3-(4,5-dimethylthiazol-2-yl)-5-(3-carboxymethoxyphenyl)-2-(4-sulfophenyl)-2H-tetrazolium] (Promega, Madison, Wis.).
# Reagents. Staphylococcus aureus Cowan I (SAC) was obtained from Calbiochem (La Jolla, Calif.), and lipopolysaccharide (LPS, Serratia marscencens) was obtained from Sigma (St. Louis, Mo.). Human and mouse recombinant IFNγ were purchased from Boehringer Mannheim (Mannheim, Germany) and Pharmingen (San Diego, Calif.), respectively.
# Human In Vitro Assay. Human PBMC were isolated by centrifugation using Ficoll-Paque (Pharmacia Biotech, Uppsala, Sweden) and prepared in RPMI medium supplemented with 10% fetal calf serum (FCS), 100 U/mL penicillin, and 100 μg/mL streptomycin. PBMC were plated in wells of a 96-well plate at a concentration of 5×10^5 cells/well, and primed by adding IFNγ (30 U/mL) for 22 h and stimulated by adding LPS (1 μg/mL), or by adding IFNγ (100 U/mL) and then stimulated by adding SAC (0.01%). A test pyrimidine compound was dissolved in DMSO, and added to wells of the 96-well plate. The final DMSO concentration was adjusted to 0.25% in all cultures, including the compound-free control. Human THP-1 cells were plated in wells, primed by adding IFNγ (100 U/mL) for 22 h and stimulated by adding SAC (0.025%) in the presence of different concentrations of the pyrimidine compound. Cell-free supernatants were taken 18 h later for measurement of cytokines. Cell viability was assessed using the bioreduction of MTS. Cell survival was estimated by determining the ratio of the absorbance in compound-treated groups versus compound-free control.
# The supernatant was assayed for the amount of IL-12p40, IL-12p70, or IL-10 by using a sandwich ELISA with anti-human antibodies, i.e., a Human IL-12 p40 ELISA kit from R&D Systems (Berkeley, Calif.), and a Human IL-12 p70 or IL-10 ELISA kit from Endogen (Cambridge, Mass.). Assays were based on the manufacturer's instructions.
# The biological activities of pyrimidine compounds were tested on human PBMC or THP-1 cells. Unexpectedly, some of the test compounds have IC50 values as low as <1 nM.
compound,measurement,setting,value
"Cc1cccc(/C=N/Nc2cc(N3CCOCC3)nc(CCOC(=O)Nc3cccc(C(F)(F)F)c3)n2)c1 [Compound 12, (3-Trifluoromethyl-phenyl)-carbamic acid 2-{4-[N′-(3-methyl-benzylidene)-hydrazino]-6-morpholin-4-yl-pyrimidin-2-yl}-ethyl ester]",arthritic score,[1],reduced the arthritic score
same,development of polyarthritis,[1],delayed the development of polyarthritis
same,% Deduction (colon-to-body weight ratio),[2],about 30%
same,IC50,[3],< 25 nM
